Molecular target: CDK2 (UniProt P24941)

Kd: 3.2 µM
SMILES: O=C1c2ccccc2-c2n[nH]c3cccc1c23

Source: the Kinase Knowledgebase extract (Sharma et al. 2016)
